Results published in ChEMBL document CHEMBL4130363, “Synthesis and pharmacological evaluation of benzamide derivatives as potent and selective sigma-1 protein ligands” (Eur J Med Chem, 2017).

Assays:
Assay type in all cases: functional
[1] = target: T1, Muscarinic acetylcholine receptor M2 (Homo sapiens) (UniProt P08172); test: Antagonist activity at human muscarinic M2 receptor assessed as inhibition of agonist-induced effect at 10 uM by GTPgamma[35S] binding-based assay
T1 sequence (whole entry): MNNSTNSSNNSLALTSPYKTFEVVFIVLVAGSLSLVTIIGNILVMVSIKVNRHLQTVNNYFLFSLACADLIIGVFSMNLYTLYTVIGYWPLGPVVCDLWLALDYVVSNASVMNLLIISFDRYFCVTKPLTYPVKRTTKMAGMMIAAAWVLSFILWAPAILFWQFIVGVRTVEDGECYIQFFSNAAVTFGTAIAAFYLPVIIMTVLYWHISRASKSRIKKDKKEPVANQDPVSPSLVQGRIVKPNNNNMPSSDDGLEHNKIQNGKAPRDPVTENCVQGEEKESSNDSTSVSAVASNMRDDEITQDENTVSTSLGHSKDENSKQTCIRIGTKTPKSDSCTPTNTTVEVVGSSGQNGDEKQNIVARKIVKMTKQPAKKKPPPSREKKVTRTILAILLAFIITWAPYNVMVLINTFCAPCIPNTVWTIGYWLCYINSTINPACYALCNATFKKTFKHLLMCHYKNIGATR

[2] = target: T2, Cholecystokinin receptor type A (Homo sapiens) (UniProt P32238); test: Agonist activity at recombinant human […] receptor at 10 uM by aequorin reporter based assay relative to agonist
T2 sequence (whole entry): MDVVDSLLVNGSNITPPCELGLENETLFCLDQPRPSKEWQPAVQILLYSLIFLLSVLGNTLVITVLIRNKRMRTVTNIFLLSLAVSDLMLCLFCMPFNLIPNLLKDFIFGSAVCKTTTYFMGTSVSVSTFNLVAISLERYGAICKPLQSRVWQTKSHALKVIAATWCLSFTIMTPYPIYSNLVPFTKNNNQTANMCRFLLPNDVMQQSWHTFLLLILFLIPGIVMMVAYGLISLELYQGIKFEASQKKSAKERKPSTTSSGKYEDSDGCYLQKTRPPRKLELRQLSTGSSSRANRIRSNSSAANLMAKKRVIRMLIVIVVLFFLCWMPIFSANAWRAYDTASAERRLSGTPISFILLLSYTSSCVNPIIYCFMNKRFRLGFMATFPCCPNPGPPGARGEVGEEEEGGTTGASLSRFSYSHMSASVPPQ

[3] = target: Beta-1 adrenergic receptor (Homo sapiens) (UniProt P08588); test: Agonist activity at recombinant human beta-1 adrenergic receptor assessed as induction of cAMP levels at 10 uM by HTRF assay relative to agonist
[4] = target: Mu-type opioid receptor (Homo sapiens) (UniProt P35372); test: Agonist activity at recombinant human mu-type opioid receptor at 10 uM by GTPgamma[35S] binding-based assay relative to agonist
[5] = target: Somatostatin receptor type 4 (Homo sapiens) (UniProt P31391); test: Antagonist activity at human somatostatin receptor 4 assessed as inhibition of agonist-induced effect at 10 uM by GTPgamma[35S] binding-based assay
[6] = target: T3, Adenosine receptor A3 (Homo sapiens) (UniProt P0DMS8); test: Agonist activity at recombinant human adenosine A3 receptor […] at 10 uM by HTRF assay relative to agonist
T3 sequence (whole entry): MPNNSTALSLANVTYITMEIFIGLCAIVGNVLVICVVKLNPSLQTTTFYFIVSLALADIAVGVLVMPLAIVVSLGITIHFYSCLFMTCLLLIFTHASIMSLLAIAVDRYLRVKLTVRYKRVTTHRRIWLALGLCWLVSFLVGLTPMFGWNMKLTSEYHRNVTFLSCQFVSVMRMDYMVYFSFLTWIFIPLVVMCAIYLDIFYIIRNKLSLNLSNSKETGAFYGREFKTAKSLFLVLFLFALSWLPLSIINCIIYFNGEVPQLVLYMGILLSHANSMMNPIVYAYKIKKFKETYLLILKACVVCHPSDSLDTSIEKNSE

[7] = target: T4, 5-hydroxytryptamine receptor 2C (Homo sapiens) (UniProt P28335); test: Agonist activity at recombinant human 5-HT2C at 10 uM by aequorin reporter based assay relative to agonist
T4 sequence (whole entry): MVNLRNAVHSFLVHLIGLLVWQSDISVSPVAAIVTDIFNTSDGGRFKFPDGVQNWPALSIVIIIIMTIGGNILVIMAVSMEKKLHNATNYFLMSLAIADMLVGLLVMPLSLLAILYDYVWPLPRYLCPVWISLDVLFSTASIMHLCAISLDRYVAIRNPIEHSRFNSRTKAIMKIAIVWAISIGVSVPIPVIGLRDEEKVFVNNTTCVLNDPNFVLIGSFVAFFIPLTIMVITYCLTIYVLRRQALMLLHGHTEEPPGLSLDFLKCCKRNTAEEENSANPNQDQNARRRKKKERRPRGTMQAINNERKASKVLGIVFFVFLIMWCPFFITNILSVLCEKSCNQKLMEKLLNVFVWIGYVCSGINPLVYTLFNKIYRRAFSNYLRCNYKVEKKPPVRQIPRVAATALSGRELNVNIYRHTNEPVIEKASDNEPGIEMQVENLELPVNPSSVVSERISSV

[8] = target: T5, Alpha-2B adrenergic receptor (Homo sapiens) (UniProt P18089); test: Agonist activity at recombinant human alpha-2b adrenergic receptor at 10 uM by GTPgamma[35S] binding-based assay relative to agonist
T5 sequence (whole entry): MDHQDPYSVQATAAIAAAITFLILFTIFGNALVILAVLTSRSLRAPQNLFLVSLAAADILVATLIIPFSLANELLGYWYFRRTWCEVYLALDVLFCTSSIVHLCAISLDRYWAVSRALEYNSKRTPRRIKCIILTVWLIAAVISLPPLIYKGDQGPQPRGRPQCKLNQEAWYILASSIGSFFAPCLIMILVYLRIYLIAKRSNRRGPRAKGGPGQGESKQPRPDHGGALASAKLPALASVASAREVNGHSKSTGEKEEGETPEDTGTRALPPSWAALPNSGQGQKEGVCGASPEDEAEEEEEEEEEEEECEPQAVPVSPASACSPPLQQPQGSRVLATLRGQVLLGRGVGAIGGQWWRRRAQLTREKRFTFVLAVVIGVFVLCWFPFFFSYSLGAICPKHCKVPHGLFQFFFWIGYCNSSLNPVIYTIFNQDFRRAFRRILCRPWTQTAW

Chain of Somatostatin receptor type 4 (Homo sapiens) (P31391 whole entry): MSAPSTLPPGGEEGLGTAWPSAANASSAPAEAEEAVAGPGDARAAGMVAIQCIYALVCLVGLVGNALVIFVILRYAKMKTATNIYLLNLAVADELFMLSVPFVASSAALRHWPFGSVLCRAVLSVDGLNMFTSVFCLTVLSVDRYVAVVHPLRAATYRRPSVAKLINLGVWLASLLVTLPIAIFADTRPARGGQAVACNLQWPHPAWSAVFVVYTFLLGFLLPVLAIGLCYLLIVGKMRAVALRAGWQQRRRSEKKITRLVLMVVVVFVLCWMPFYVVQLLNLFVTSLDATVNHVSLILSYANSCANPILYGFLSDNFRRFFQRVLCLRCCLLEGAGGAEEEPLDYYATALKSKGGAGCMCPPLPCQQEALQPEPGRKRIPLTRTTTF
Chain of Beta-1 adrenergic receptor (Homo sapiens) (P08588 whole entry, looked up): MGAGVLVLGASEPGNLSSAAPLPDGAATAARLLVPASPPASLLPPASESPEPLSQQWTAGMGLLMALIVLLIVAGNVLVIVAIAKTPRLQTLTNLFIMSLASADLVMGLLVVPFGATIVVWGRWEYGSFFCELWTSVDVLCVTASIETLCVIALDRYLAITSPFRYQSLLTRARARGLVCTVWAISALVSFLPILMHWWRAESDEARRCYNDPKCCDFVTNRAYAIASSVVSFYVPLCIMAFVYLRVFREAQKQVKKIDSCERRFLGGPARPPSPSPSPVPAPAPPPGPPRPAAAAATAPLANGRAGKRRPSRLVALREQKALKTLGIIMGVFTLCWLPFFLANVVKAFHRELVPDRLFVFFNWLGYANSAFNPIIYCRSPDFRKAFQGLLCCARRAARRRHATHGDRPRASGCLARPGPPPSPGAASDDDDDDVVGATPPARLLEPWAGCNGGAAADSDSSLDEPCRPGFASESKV
Chain of Mu-type opioid receptor (Homo sapiens) (P35372 whole entry): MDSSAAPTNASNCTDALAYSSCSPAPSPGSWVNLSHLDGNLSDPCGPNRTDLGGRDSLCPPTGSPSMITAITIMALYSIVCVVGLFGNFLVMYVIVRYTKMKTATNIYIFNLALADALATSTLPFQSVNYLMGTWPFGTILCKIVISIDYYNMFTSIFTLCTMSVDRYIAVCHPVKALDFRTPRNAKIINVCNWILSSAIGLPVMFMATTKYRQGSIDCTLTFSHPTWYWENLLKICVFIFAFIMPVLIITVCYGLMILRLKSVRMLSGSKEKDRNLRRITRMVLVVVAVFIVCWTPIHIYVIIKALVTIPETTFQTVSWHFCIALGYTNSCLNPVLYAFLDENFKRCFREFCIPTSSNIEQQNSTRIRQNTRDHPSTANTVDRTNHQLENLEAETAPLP

## CN(CCCNC(=O)c1ccc(Cl)cc1)CCc1ccccc1
[1]
  inhibition: 54%
[2]
  Activity: -2%
[3]
  Activity: 18%
[4]
  Activity: 22%
[5]
  inhibition: -3%
[6]
  Activity: -6%
[7]
  Activity: 75%
[8]
  Activity: 0%

## CN(CCNC(=O)c1ccc(C#N)cc1)Cc1ccccc1
[1]
  inhibition: 26%
[2]
  Activity: -2%
[3]
  Activity: -5%
[4]
  Activity: 66%
[5]
  inhibition: 34%
[6]
  Activity: 0%
[7]
  Activity: -1%
[8]
  Activity: -5%

## CN(CCCNC(=O)c1cccc(Br)c1)Cc1ccccc1
[1]
  inhibition: 30%
[2]
  Activity: 0%
[3]
  Activity: 10%
[4]
  Activity: 15%
[5]
  inhibition: 21%
[6]
  Activity: -3%
[7]
  Activity: -3%
[8]
  Activity: -4%

## COc1cccc(C(=O)NCCCN(C)Cc2ccccc2)c1
[1]
  inhibition: 26%
[2]
  Activity: -2%
[3]
  Activity: -10%
[4]
  Activity: 16%
[5]
  inhibition: 25%
[6]
  Activity: -3%
[7]
  Activity: 5%
[8]
  Activity: -1%

## CN(CCNC(=O)c1ccc(Cl)cc1)Cc1ccccc1
[1]
  inhibition: 28%
[2]
  Activity: -2%
[3]
  Activity: 7%
[4]
  Activity: 62%
[5]
  inhibition: 21%
[6]
  Activity: -2%
[7]
  Activity: 62%
[8]
  Activity: -1%

## CN(CCNC(=O)c1ccc([N+](=O)[O-])cc1)Cc1ccccc1
[1]
  inhibition: 29%
[2]
  Activity: -2%
[3]
  Activity: -3%
[4]
  Activity: 60%
[5]
  inhibition: 30%
[6]
  Activity: -1%
[7]
  Activity: 13%
[8]
  Activity: -4%

## CN(CCCNC(=O)c1ccc(Br)cc1)Cc1ccccc1
[1]
  inhibition: 28%
[2]
  Activity: -1%
[3]
  Activity: 2%
[4]
  Activity: 39%
[5]
  inhibition: 4%
[6]
  Activity: -6%
[7]
  Activity: 11%
[8]
  Activity: 1%

## CN(CCCNC(=O)c1ccc(C(F)(F)F)cc1)Cc1ccccc1
[1]
  inhibition: 20%
[2]
  Activity: -2%
[3]
  Activity: 2%
[4]
  Activity: 43%
[5]
  inhibition: 17%
[6]
  Activity: 7%
[7]
  Activity: -7%
[8]
  Activity: 2%

## COc1ccc(C(=O)NCCCN(C)Cc2ccccc2)cc1
[1]
  inhibition: 29%
[2]
  Activity: -1%
[3]
  Activity: -12%
[4]
  Activity: 16%
[5]
  inhibition: 25%
[6]
  Activity: -5%
[7]
  Activity: 5%
[8]
  Activity: -4%

## CN(CCCNC(=O)c1ccc(Cl)cc1)Cc1ccccc1
[1]
  inhibition: 38%
[2]
  Activity: -1%
[3]
  Activity: 4%
[4]
  Activity: 26%
[5]
  inhibition: 20%
[6]
  Activity: -4%
[7]
  Activity: 12%
[8]
  Activity: 1%

## CCCc1ccc(C(=O)NCCCN(C)Cc2ccccc2)cc1
[1]
  inhibition: 36%
[2]
  Activity: -1%
[3]
  Activity: 6%
[4]
  Activity: 31%
[5]
  inhibition: 31%
[6]
  Activity: 3%
[7]
  Activity: 63%
[8]
  Activity: -2%

## CN(CCCNC(=O)c1ccc([N+](=O)[O-])cc1)Cc1ccccc1
[1]
  inhibition: 15%
[2]
  Activity: -1%
[3]
  Activity: 3%
[4]
  Activity: 31%
[5]
  inhibition: 15%
[6]
  Activity: -1%
[7]
  Activity: 2%
[8]
  Activity: 2%
